Reference: US9255295B2, “Method for evaluating the sensitizing potential of a test compound” (IMMUNOSEARCH, priority 2010, dated 2016)
Values joined by “and” are separate entries in the source; they are usually repeats but may differ in a detail not shown here. Equal values may be shown once. Read-outs that look alike come from different tables or passages of the source.

Columns and labels:
[1] = system: ARE gene family (AKR1B10, AKR1C1, AKR1C2, CYP1B1, FTH1P, FTL, G6PD, GCLM, NQO2, SLC7A11, TXNRD1, UGT1A1, UGT1A9, YWHAZ, CD36, CYP1A1, GCLC, HMOX1, NQO1, PSME2 …)
[2] = system: genes specific for sensitization (BRAK, CTSS, DAPK2, FABP4, HSP27, IL18, HSP90, IL1R2, TPSAB1, CXCR1, DEFB1, DHFR, EHF, IVL, KRT4, MELANA, NGAL, PDZK1IP1, PI3 …); assay: Expression of the other (non-ARE) sensitization-specific genes in EPISKIN reconstructed skin (quantitative RT-PCR); format: cell-based, human

Description for EPISKIN model: “Sensitizing power” means the ability of a given compound to induce a sensitization reaction according to the concentration of said compound. Sensitizing power is dependent on the quantity of substance necessary to induce sensitization. Thus, the lower the sensitizing quantity necessary to induce a sensitizing response, the stronger the sensitizer is, and vice versa, the higher the sensitizing quantity necessary to induce a sensitizing response, the weaker the sensitizer is.
Thus, steps 1) and 2) will be done for each of the dilutions.

## Nc1ccccc1O [2-aminophenol]
[1]; 10%
  CYP1A1 grade (NUMBER OF GENES): 1 (If the expression is greater than 1.3 compared to the control, a grade of 11s given)
  CYP1B1 expression compared to control: 45.1
  CYP1B1 grade (NUMBER OF GENES): 1 (If the expression is greater than 1.3 compared to the control, a grade of 11s given)
  FTH1P expression compared to control: 1.5
  FTH1P grade (NUMBER OF GENES): 1 (If the expression is greater than 1.3 compared to the control, a grade of 11s given)
  FTL expression compared to control: 2.5
  FTL grade (NUMBER OF GENES): 1 (If the expression is greater than 1.3 compared to the control, a grade of 11s given)
  GCLC expression compared to control: 2.3
  GCLC grade (NUMBER OF GENES): 1 (If the expression is greater than 1.3 compared to the control, a grade of 11s given)
  GCLM expression compared to control: 4.6
  GCLM grade (NUMBER OF GENES): 1 (If the expression is greater than 1.3 compared to the control, a grade of 11s given)
  HMOX1 expression compared to control: 1.7
  HMOX1 grade (NUMBER OF GENES): 1 (If the expression is greater than 1.3 compared to the control, a grade of 11s given)
  NQO1 expression compared to control: 2.5
  NQO1 grade (NUMBER OF GENES): 1 (If the expression is greater than 1.3 compared to the control, a grade of 11s given)
  NQO2 expression compared to control: 1.4
  NQO2 grade (NUMBER OF GENES): 1 (If the expression is greater than 1.3 compared to the control, a grade of 11s given)
  S100A8 expression compared to control: 1.2
  S100A8 grade (NUMBER OF GENES): 0 (if this expression is lower, the grade is 0)
  SLC7A11 expression compared to control: 3.8
  SLC7A11 grade (NUMBER OF GENES): 1 (If the expression is greater than 1.3 compared to the control, a grade of 11s given)
  TOTAL ARE (NUMBER OF GENES): 14
  TXNRD1 expression compared to control: 7.6
  TXNRD1 grade (NUMBER OF GENES): 1 (If the expression is greater than 1.3 compared to the control, a grade of 11s given)
  UGT1A1 expression compared to control: 1.8
  UGT1A1 grade (NUMBER OF GENES): 1 (If the expression is greater than 1.3 compared to the control, a grade of 11s given)
  UGT1A9 expression compared to control: 1.2
  UGT1A9 grade (NUMBER OF GENES): 0 (if this expression is lower, the grade is 0)
[1]; 50%
  AHR expression compared to control: 1.3
  AHR grade (NUMBER OF GENES): 0 (if this expression is lower, the grade is 0)
  AKR1B10 expression compared to control: 1.3
  AKR1B10 grade (NUMBER OF GENES): 1 (If the expression is greater than 1.3 compared to the control, a grade of 11s given)
  AKR1C1 expression compared to control: 8.6
  AKR1C1 grade (NUMBER OF GENES): 1 (If the expression is greater than 1.3 compared to the control, a grade of 11s given)
  AKR1C2 expression compared to control: 3.3
  AKR1C2 grade (NUMBER OF GENES): 1 (If the expression is greater than 1.3 compared to the control, a grade of 11s given)
  ARE >1.3 (NUMBER OF GENES): 14
  CD36 expression compared to control: 0.7
  CD36 grade (NUMBER OF GENES): 0 (if this expression is lower, the grade is 0)
  CYP1A1 expression compared to control: 66.5
  CYP1A1 grade (NUMBER OF GENES): 1 (If the expression is greater than 1.3 compared to the control, a grade of 11s given)
  CYP1B1 expression compared to control: 37.7
  CYP1B1 grade (NUMBER OF GENES): 1 (If the expression is greater than 1.3 compared to the control, a grade of 11s given)
  FTH1P expression compared to control: 2.0
  FTH1P grade (NUMBER OF GENES): 1 (If the expression is greater than 1.3 compared to the control, a grade of 11s given)
  FTL expression compared to control: 3.5
  FTL grade (NUMBER OF GENES): 1 (If the expression is greater than 1.3 compared to the control, a grade of 11s given)
  GCLC expression compared to control: 4.0
  GCLC grade (NUMBER OF GENES): 1 (If the expression is greater than 1.3 compared to the control, a grade of 11s given)
  GCLM expression compared to control: 4.7
  GCLM grade (NUMBER OF GENES): 1 (If the expression is greater than 1.3 compared to the control, a grade of 11s given)
  HMOX1 expression compared to control: 1.9
  HMOX1 grade (NUMBER OF GENES): 1 (If the expression is greater than 1.3 compared to the control, a grade of 11s given)
  NQO1 expression compared to control: 3.3
  NQO1 grade (NUMBER OF GENES): 1 (If the expression is greater than 1.3 compared to the control, a grade of 11s given)
  NQO2 expression compared to control: 1.3
  NQO2 grade (NUMBER OF GENES): 0 (if this expression is lower, the grade is 0)
  S100A8 expression compared to control: 1.3
  S100A8 grade (NUMBER OF GENES): 1 (If the expression is greater than 1.3 compared to the control, a grade of 11s given)
  SLC7A11 expression compared to control: 6.0
  SLC7A11 grade (NUMBER OF GENES): 1 (If the expression is greater than 1.3 compared to the control, a grade of 11s given)
  TOTAL ARE (NUMBER OF GENES): 14
  TXNRD1 expression compared to control: 6.4
  TXNRD1 grade (NUMBER OF GENES): 1 (If the expression is greater than 1.3 compared to the control, a grade of 11s given)
  UGT1A1 expression compared to control: 2.1
  UGT1A1 grade (NUMBER OF GENES): 1 (If the expression is greater than 1.3 compared to the control, a grade of 11s given)
  UGT1A9 expression compared to control: 0.4
  UGT1A9 grade (NUMBER OF GENES): 0 (if this expression is lower, the grade is 0)
[2]
  BRAK grade (NUMBER OF GENES): 0 (key: If the expression is greater than 1.3 compared to the control, a grade of 11s given; if this expression is lower, the grade is 0)
  CTSS expression compared to control: 1.3 and 1.2 and 1.4
  DAPK2 expression compared to control: 1.0 and 0.9
  DAPK2 grade (NUMBER OF GENES): 0 (key: If the expression is greater than 1.3 compared to the control, a grade of 11s given; if this expression is lower, the grade is 0)
  DEFB1 expression compared to control: 1.9 and 1.8 and 1.4 and 1.1
  DHFR expression compared to control: 0.9 and 1.2
  DHFR grade (NUMBER OF GENES): 0 (key: If the expression is greater than 1.3 compared to the control, a grade of 11s given; if this expression is lower, the grade is 0)
  EHF expression compared to control: 1.7 and 1.5 and 1.4 and 1.2
  FABP4 expression compared to control: 1.1 and 0.7 and 0.9
  FABP4 grade (NUMBER OF GENES): 0 (key: If the expression is greater than 1.3 compared to the control, a grade of 11s given; if this expression is lower, the grade is 0)
  HSP27 expression compared to control: 1.0 and 1.1 and 0.8
  HSP27 grade (NUMBER OF GENES): 0 (key: If the expression is greater than 1.3 compared to the control, a grade of 11s given; if this expression is lower, the grade is 0)
  HSP90 expression compared to control: 1.5 and 1.2 and 1.0
  IL18 expression compared to control: 0.9 and 0.8 and 1.1
  IL18 grade (NUMBER OF GENES): 0 (key: If the expression is greater than 1.3 compared to the control, a grade of 11s given; if this expression is lower, the grade is 0)
  IVL expression compared to control: 1.8 and 1.3 and 0.9
  KRT4 expression compared to control: 1.7 and 1.1
  MELANA grade (NUMBER OF GENES): 0 (key: If the expression is greater than 1.3 compared to the control, a grade of 11s given; if this expression is lower, the grade is 0)
  NGAL expression compared to control: 1.8 and 1.9 and 1.5 and 1.1
  P13 expression compared to control: 1.5 and 1.4 and 1.2 and 1.3
  PDZK1iP1 expression compared to control: 1.0
  PDZK1iP1 grade (NUMBER OF GENES): 0 (key: If the expression is greater than 1.3 compared to the control, a grade of 11s given; if this expression is lower, the grade is 0)
  SERPINB3 expression compared to control: 1.4 and 1.2 and 1.3
EPISKIN model
  sensitizing power (class): STRONG
